# Columns and labels:
# [1] = tested on: EphB2; assay: EphB2 tyrosine phosphorylation in COS7 cells; assay type: cell-based; conditions: COS7 cells stimulated with ephrin-B2 Fc
# [2] = tested on: retinal neurons; assay: Growth cone collapse assay, nasal retina explants; assay type: cell-based, chicken; conditions: for ephrin-A5 Fc induced growth cone collapse: 1 μg/mL ephrin-A5 Fc, 400 μM compound, 5 μM KYL peptide; for shape of unstimulated growth cones: concentrations as high as 400 μM
# Experimental: FIGS. 8A-8F. Compounds 1 and 2 block EphA4-dependent growth cone collapse in retinal neurons. A. Explants from embryonic day 6 chicken embryonic were preincubated with 5 μM KYL peptide for 15 min, stimulated for 30 min with 1 μg/mL ephrin-A5 Fc or Fc as a control in the continued presence of the peptide, and stained with rhodamine-phalloidin to label filamentous actin. B. Histogram showing the mean percentages of collapsed growth cones. Growth cones were scored as collapsed when no lamellipodia or filopodia were visible at the tip of the neurite. Approximately 30-200 growth cones per condition were scored in each experiment and error bars indicate standard error from 3 independent experiments. C-F. Experiments were performed as in (A), except that retinal explants were treated with 400 μM compound 1 (C,D) or compound 2 (E,F). Approximately 80-250 growth cones per condition were scored in each experiment, and error bars indicate standard error from 3 experiments. Collapsed growth cones under different conditions were compared to those in the Fc control condition by one-way ANOVA and Dunnett's post test. *P<0.05 and **P<0.01. Scale bars in (A), (C), (E)=[…].
# Growth Cone Collapse Assay—Nasal retina explants from embryonic day 6 chicken embryos were cultured on coverslips coated with 200 μg/mL poly-L-lysine and 20 μg/mL lamining for 12 to 24 hours in DMEM/F-12 culture medium containing 10% FBS and 0.4% methylcellulose. Three hours before adding the Fc fusion proteins, the medium was changed to DMEM/F-12 without methylcellulose. The explants were incubated for 15 min with the KYL peptide or the chemical compounds and then stimulated for 30 min with 1 μg/mL preclustered ephrin-A5 Fc or Fc as a control. The cultures were fixed for 30 min in 4% paraformaldehyde/4% sucrose in phosphate buffered saline (PBS), permeabilized in 0.1% Triton X-100 in PBS and stained with rhodamine-conjugated phalloidin (Invitrogen, Carlsbad, Calif.). Cells were photographed under a fluorescence microscope and growth cones where scored in a blinded manner as collapsed when no lamellipodia or filopodia were present at the tip of the neurite.
# [3] = tested on: COS and HT22 cells; assay: Overall tyrosine phosphorylation in COS and HT22 cells; assay type: cell-based
# Experimental: Measurement of Receptor Tyrosine Phosphorylation in Cells—HT22 neuronal cells, which endogenously express EphA4, are derived from immortalized mouse hippocampal neurons (Li et al. (1997) Neuron 19(2), 453-463). COST cells, which endogenously express EphA2, EphB2 and the EGF receptor (EGFR), were obtained from ATCC. Both cell lines were grown in Dulbecco's Modified Eagle's Medium (DMEM) (Mediatech, Inc, Herndon, Va.) with 10% fetal bovine serum (FBS) (Hyclone, Logan, Utah) and Pen/Strep. For EphA4 immunoprecipitations, HT22 cells were serum-starved overnight in 0.5% FBS in DMEM and incubated for 15 min with the compounds or DMSO as a control. The cells were then stimulated with 0.5 μg/mL ephrin-A5 Fc, ephrin-A4 Fc or Fc for 20 min in the continued presence of the compounds. After stimulation the cells were lysed in modified RIPA buffer (1% Triton X-100, 1% Na deoxycholate; 0.1% SDS; 20 mM Tris; 150 mM NaCl; 1 mM EDTA) containing […], 1 μM sodium pervanadate and protease inhibitors. The protein concentration was calculated using the BCA protein assay kit (Pierce Biotecnology, Rockford, Ill.). Cell lysates were immunoprecipitated with 4 μg anti-EphA4 antibody (Soans et al. (1994) Oncogene 9(11), 3353-3361). For EphA2 and EphB2 immunoprecipitations, serum-starved COS7 cells were stimulated with 0.1 μg/mL ephrin-A1 Fc or 0.5 μg/mL ephrin-B2 Fc, respectively. […]
Structure (SMILES),phosphorylation of endogenous EphB2 [1],ephrin-A5 Fc induced growth cone collapse [2],ephrin-A5 Fc induced growth cone collapse ([2]; listed as Compound 1),shape of unstimulated growth cones [2],overall tyrosine phosphorylation [3]
"Cc1ccc(C)n1-c1ccc(C(=O)O)c(O)c1 [compound 1, 4-(2,5-dimethyl-pyrrol-1-yl)-2-hydroxy-benzoic acid]",did not inhibit,block,blocked,neither the KYL peptide nor the two compounds at concentrations as high as 400 μM affected the shape,did not inhibit
"Cc1ccc(C)n1-c1ccc(O)c(C(=O)O)c1 [compound 2, 5-(2,5 dimethyl-pyrrol-1-yl)-2-hydroxy-benzoic acid]",did not inhibit,block,–,neither the KYL peptide nor the two compounds at concentrations as high as 400 μM affected the shape,did not inhibit

# Source: patent publication US20100256214A1, “EPH RECEPTOR LIGANDS AND METHODS OF USE” (Burnham Institute for Medical Research, priority 2009, published 2010)
